In patent US20170045529A1, “METHODS OF MEASURING ANTIGEN-SPECIFIC T CELLS” (ImmusanT, Inc., priority 2014, published 2017):
Non-standard residues stand in square brackets, D forms with d. pGlu = O=C1CC[C@@H](C(=O)O)N1

How the values were obtained:
Assay type in all cases: cell-based, human
[1] = system: whole blood; assay: Whole blood IFN-γ release to peptide pools and individual peptides, MAGPIX multiplex bead assay (Example 3); conditions: 10 uM
[2] = system: whole blood; assay: Whole blood IL-2 release to peptide pools and individual peptides, MAGPIX multiplex bead assay (Example 3); conditions: 10 uM
[3] = system: whole blood; assay: Whole blood IP-10 release to peptide pools and individual peptides, MAGPIX multiplex bead assay (Example 3); conditions: Table 10C, 10 uM
[4] = Subject 1 (HLA-DQ 2.5, 8), day 0 of oral challenge
[5] = Subject 1 (HLA-DQ 2.5, 8), day 6 of oral challenge
[6] = Subject 2 (HLA-DQ 2.5, 8), day 0 of oral challenge
[7] = Subject 2 (HLA-DQ 2.5, 8), day 6 of oral challenge
[8] = Subject 6 (HLA-DQ 2.5), day 0 of oral challenge
[9] = Subject 6 (HLA-DQ 2.5), day 6 of oral challenge
[10] = Subject 7 (HLA-DQ 2.5, 8), day 0 of oral challenge
[11] = Subject 7 (HLA-DQ 2.5, 8), day 6 of oral challenge
[12] = Subject 1, day 0 since commencing oral challenge
[13] = Subject 1, day 6 since commencing oral challenge
[14] = Subject 2, day 0 since commencing oral challenge
[15] = Subject 2, day 6 since commencing oral challenge
[16] = Subject 6, day 0 since commencing oral challenge
[17] = Subject 6, day 6 since commencing oral challenge
[18] = Subject 7, day 0 since commencing oral challenge
[19] = Subject 7, day 6 since commencing oral challenge

Substance: (pE)QPFPQPEQPFPWQP-NH2 ([pGlu]QPFPQPEQPFPWQP-NH2; SMILES NC(=O)CC[C@H](NC(=O)[C@H](Cc1c[nH]c2ccccc12)NC(=O)[C@@H]1CCCN1C(=O)[C@H](Cc1ccccc1)NC(=O)[C@@H]1CCCN1C(=O)[C@H](CCC(N)=O)NC(=O)[C@H](CCC(=O)O)NC(=O)[C@@H]1CCCN1C(=O)[C@H](CCC(N)=O)NC(=O)[C@@H]1CCCN1C(=O)[C@H](Cc1ccccc1)NC(=O)[C@@H]1CCCN1C(=O)[C@H](CCC(N)=O)NC(=O)[C@@H]1CCC(=O)N1)C(=O)N1CCC[C@H]1C(N)=O)
- Whole blood IFNg release, Concentration [1, 4]: 60 pg/mL
- Whole blood IFNg release, Fold-change over medium only [1, 4]: 1.09
- Whole blood IFNg release, Concentration [1, 5]: 62 pg/mL
- Whole blood IFNg release, Fold-change over medium only [1, 5]: 0.95
- Whole blood IFNg release, Concentration [1, 6]: 4.5 pg/mL
- Whole blood IFNg release, Fold-change over medium only [1, 6]: 1.19
- Whole blood IFNg release, Concentration [1, 7]: 6.4 pg/mL
- Whole blood IFNg release, Fold-change over medium only [1, 7]: 1.32
- Whole blood IFNg release, Concentration [1, 8]: 94 pg/mL
- Whole blood IFNg release, Fold-change over medium only [1, 8]: 0.98
- Whole blood IFNg release, Concentration [1, 9]: 258 pg/mL
- Whole blood IFNg release, Fold-change over medium only [1, 9]: 2.63
- Whole blood IFNg release, Concentration [1, 10]: 158 pg/mL
- Whole blood IFNg release, Fold-change over medium only [1, 10]: 0.66
- Whole blood IFNg release, Concentration [1, 11]: 150 pg/mL
- Whole blood IFNg release, Fold-change over medium only [1, 11]: 1.00
- Whole blood IL-2 release, Concentration [2, 4]: 3.2 pg/mL
- Whole blood IL-2 release, Fold-change over medium only [2, 4]: 1.00
- Whole blood IL-2 release, Concentration [2, 5]: 3.2 pg/mL
- Whole blood IL-2 release, Fold-change over medium only [2, 5]: 1.00
- Whole blood IL-2 release, Concentration [2, 6]: 3.2 pg/mL
- Whole blood IL-2 release, Fold-change over medium only [2, 6]: 1.00
- Whole blood IL-2 release, Concentration [2, 7]: 5.2 pg/mL
- Whole blood IL-2 release, Fold-change over medium only [2, 7]: 1.61
- Whole blood IL-2 release, Concentration [2, 8]: 17.9 pg/mL
- Whole blood IL-2 release, Fold-change over medium only [2, 8]: 3.62
- Whole blood IL-2 release, Concentration [2, 9]: 115.9 pg/mL
- Whole blood IL-2 release, Fold-change over medium only [2, 9]: 27.33
- Whole blood IL-2 release, Concentration [2, 10]: 41.4 pg/mL
- Whole blood IL-2 release, Fold-change over medium only [2, 10]: 0.66
- Whole blood IL-2 release, Concentration [2, 11]: 55.1 pg/mL
- Whole blood IL-2 release, Fold-change over medium only [2, 11]: 1.31
- Whole blood IP-10 release, Concentration [3, 12]: 218 pg/mL
- Whole blood IP-10 release, Fold-change over medium only [3, 12]: 0.82
- Whole blood IP-10 release, Concentration [3, 13]: 501 pg/mL
- Whole blood IP-10 release, Fold-change over medium only [3, 13]: 1.49
- Whole blood IP-10 release, Concentration [3, 14]: 376 pg/mL
- Whole blood IP-10 release, Fold-change over medium only [3, 14]: 1.42
- Whole blood IP-10 release, Concentration [3, 15]: 1140 pg/mL
- Whole blood IP-10 release, Fold-change over medium only [3, 15]: 3.65
- Whole blood IP-10 release, Concentration [3, 16]: 1934 pg/mL
- Whole blood IP-10 release, Fold-change over medium only [3, 16]: 6.98
- Whole blood IP-10 release, Concentration [3, 17]: 10000 pg/mL
- Whole blood IP-10 release, Fold-change over medium only [3, 17]: 49.76
- Whole blood IP-10 release, Concentration [3, 18]: 900 pg/mL
- Whole blood IP-10 release, Fold-change over medium only [3, 18]: 1.21
- Whole blood IP-10 release, Concentration [3, 19]: 10000 pg/mL
- Whole blood IP-10 release, Fold-change over medium only [3, 19]: 11.21
